Experimental data: patent publication US9604969B2, “Pyrimidin-4-yl)oxy)-1h-indole-1-carboxamide derivatives and use thereof” (NOVARTIS AG, priority 2013, dated 2017)
Where a name gives a salt, the structure may show the parent alone.

Assays:
monkey hepatocytes = assay: Hepatocyte viability during incubation (Guava ViaCount); type: cell-based; settings: 10 μmol/L, percent viable cells relative to total cells, controls without compound 4-21%
Procedure: (§1) After thawing the cryopreserved hepatocytes, the viable cells were enriched by centrifugation in HepatoZYME cell culture medium (Gibco Invitrogen). For this purpose, the cells were added to 45 mL of a 37° C. warm HepatoZYME, and centrifuged at room temperature, at 50 g for 5 min. The supernatant containing dead cells was discarded and the cells in the pellet were re-suspended in HepatoZYME.
(§2) The viability of the re-suspended hepatocytes was determined by a Guava EasyCyte™ Mini system using the ViaCount® assay as described by the supplier (Guava Technologies, Hayward, Calif., USA). After cell counting, the cell concentration was adjusted to approx. 1·10^6 viable cells/mL by adding HepatoZYME. Subsequently, the incubations were started by adding [^14C]N-(1-methyl-5-(trifluoromethyl)-1H-pyrazol-3-yl)-5-(6-((methylamino)methyl)pyrimidin-4-yloxy)-1H-indole-1-carboxamide and non-labeled N-(1-methyl-5-(trifluoromethyl)-1H-pyrazol-3-yl)-5-(6-((methylamino)methyl)pyrimidin-4-yloxy)-1H-indole-1-carboxamide as a solution in DMSO. The final concentration of DMSO in the incubations was 0.1% (v/v).
(§3) To check the chemical stability of [^14C]N-(1-methyl-5-(trifluoromethyl)-1H-pyrazol-3-yl)-5-(6-((methylamino)methyl)pyrimidin-4-yloxy)-1H-indole-1-carboxamide under the incubation conditions, the compound was incubated at a concentration of 10 μmol/L in HepatoZYME without hepatocytes. A second series of control incubations was performed with hepatocytes of all species in the absence of the test compound to investigate the effect of the latter on the viability. These experiments were performed in a 12×6 mL MultiWell™ plate (Art. 393503, Beckton Dickinson).
(§4) The incubations were performed at 37° C. under a humidified atmosphere of 95% relative humidity and 5% CO2 in a Heraeus incubator/cytoperm (Kendro Laboratory Products AG, Zürich, Switzerland). During the incubations, the plates and flasks were shaken at 300 strokes per minute. The viability of the hepatocytes was determined after 6 h (end of incubation).

human hepatocytes = assay: as above; type: cell-based; settings: 10 μmol/L, percent viable cells relative to total cells, controls without compound 4-21%
Procedure: as §1, §2, §3, §4

rat hepatocytes = assay: as above; type: cell-based; settings: 10 μmol/L, percent viable cells relative to total cells, controls without compound 4-21%
Procedure: as §1, §2, §3, §4

rabbit hepatocytes = assay: as above; type: cell-based; settings: 10 μmol/L, percent viable cells relative to total cells, controls without compound 4-21%
Procedure: as §1, §2, §3, §4

[1] = Control incubations for chemical stability in incubation media; type: physicochemical; settings: 10 μmol/L, 37° C., incubation media in the absence of hepatocytes or liver microsomes
Procedure: as §3
Microsomal incubations for metabolite profiles were performed at 10 μmol/L of [^14C]N-(1-methyl-5-(trifluoromethyl)-1H-pyrazol-3-yl)-5-(6-((methylamino)methyl)pyrimidin-4-yloxy)-1H-indole-1-carboxamide (approx. 50% radiolabeled) with one time point investigated (60 min). Incubations were performed at 37° C. in 0.1 mol/L sodium phosphate buffer pH 7.4. The final concentrations in the incubation cocktail were: 4 mmol/L UDPGA (Sigma-Aldrich), 1 mmol/L β-NADPH (Sigma-Aldrich), 5 mmol/L MgCl2, and 60 μg alamethicin (Sigma-Aldrich) per mg microsomal protein. The system was left to incubate for 10 min before adding the test compound to allow the pore formation with the alamethicin. […]

[2] = type: physicochemical
Description: Crystalline form B of the HCl salt of N-(1-methyl-5-(trifluoromethyl)-1H-pyrazol-3-yl)-5-((6-((methylamino)methyl)pyrimidin-4-yl)oxy)-1H-indole-1-carboxamide was obtained using the same procedure as in Example 5 above.

| Compound | Viability at 6 h (monkey hepatocytes) [%] | Viability at 6 h (human hepatocytes) [%] | Viability at 6 h (rat hepatocytes) [%] | Viability at 6 h (rabbit hepatocytes) [%] | Chemical stability under the incubation conditions [1] | Stability of crystalline form [2] |
| --- | --- | --- | --- | --- | --- | --- |
| CNCc1cc(Oc2ccc3c(ccn3C(=O)Nc3cc(C(F)(F)F)n(C)n3)c2)ncn1 [N-(1-methyl-5-(trifluoromethyl)-1H-pyrazol-3-yl)-5-((6-((methylamino)methyl)pyrimidin-4-yl)oxy)-1H-indole-1-carboxamide] | 42 | 25 | 22 | 8 | confirmed the stability of the compound |  |
| CNCc1cc(Oc2ccc3c(ccn3C(=O)Nc3cc(C(F)(F)F)n(C)n3)c2)ncn1 [Form B, N-(1-methyl-5-(trifluoromethyl)-1H-pyrazol-3-yl)-5-((6-((methylamino)methyl)pyrimidin-4-yl)oxy)-1H-indole-1-carboxamide (HCl Salt) Form B] |  |  |  |  |  | transient form that converts back to Form A |
